Like-named read-outs stand apart in the source and are kept apart here.
What was measured:
[1] = target: T1, androgen receptor (AR) splicing variant AR-v7 (Homo sapiens, UniProt P10275); test: Degradation activity on androgen receptor splicing variant AR-v7 in 22RV1 cells (ELISA); format: cell-based; conditions: AR-v7 degradation in 22RV1 cells, 48 h, class symbols
T1 construct: The degradation activity of compounds on AR-v7 in 22RV1 cells; host or cells: 22RV1 cells
T1 sequence (P10275 1-644 isoform P10275-3): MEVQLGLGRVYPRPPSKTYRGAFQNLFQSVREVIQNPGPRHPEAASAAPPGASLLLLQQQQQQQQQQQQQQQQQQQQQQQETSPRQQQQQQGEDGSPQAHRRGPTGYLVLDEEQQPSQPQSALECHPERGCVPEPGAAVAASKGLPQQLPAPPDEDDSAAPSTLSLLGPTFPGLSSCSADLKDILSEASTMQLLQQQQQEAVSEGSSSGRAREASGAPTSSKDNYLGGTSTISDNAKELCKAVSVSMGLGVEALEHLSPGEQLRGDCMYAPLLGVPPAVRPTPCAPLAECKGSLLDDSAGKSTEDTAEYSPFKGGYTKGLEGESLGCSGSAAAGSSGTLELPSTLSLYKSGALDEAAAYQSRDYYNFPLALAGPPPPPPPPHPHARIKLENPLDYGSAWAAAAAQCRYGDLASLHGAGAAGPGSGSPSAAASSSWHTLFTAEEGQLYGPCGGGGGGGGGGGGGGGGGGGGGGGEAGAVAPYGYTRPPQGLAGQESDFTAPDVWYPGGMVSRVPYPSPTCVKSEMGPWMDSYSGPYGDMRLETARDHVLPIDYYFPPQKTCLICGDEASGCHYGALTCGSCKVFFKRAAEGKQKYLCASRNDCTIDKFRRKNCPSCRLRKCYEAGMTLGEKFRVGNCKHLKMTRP

[2] = Pharmacokinetics in mice (plasma exposure after oral administration); format: in vivo; conditions: ICR mice, oral (i.g.) 3 mg/kg; for AUC(0-inf): mouse, read-out: After oral administration of 3 mg/kg, mouse plasma exposure AUCinf
[3] = Homo sapiens, 22Rv1, 144 h, read-out: 22RV1 IC50 (nM), 22RV1 cells, 6 days culture, CCK-8, OD 450 nm

Structure (SMILES) | DC50 [1] | AUC(0-inf) [2] | IC50 (22RV1 cells; [3]) | After oral administration of 3 mg/kg, mouse plasma exposure AUCinf (μg*h/mL) [2] | IC50 (22RV1 cells; read-out: 22RV1 IC50, 22RV1 cells, 6 days culture, CCK-8, OD 450 nm)
CC(C)(c1ccc(Oc2ncc(-n3nccn3)cn2)cc1)c1ccc(O[C@H]2C[C@H](Nc3ccc4c(c3)C(=O)N(C3CCC(=O)NC3=O)C4=O)C2)cc1 (stereo partly drawn) [Example 321] | < 10 nM | 5000 to 30000 ng·h/mL | 8 nM |  | 
Cc1nc(-c2ncc(Oc3ccc(C4(c5ccc(O[C@H]6C[C@H](Nc7ccc8c(c7)C(=O)N(C7CCC(=O)NC7=O)C8=O)C6)cc5)CC4)cc3)cn2)no1 (stereo partly drawn) [Example 212] | < 10 nM | 5000 to 30000 ng·h/mL | 14 nM |  | 
CNC(=O)c1nccc(COc2ccc(C(C)(C)c3ccc(O[C@H]4C[C@@H](Nc5ccc6c(c5)C(=O)N(C5CCC(=O)NC5=O)C6=O)C4)cc3)cc2)n1 (stereo partly drawn) [Example 187, 4-((4-(2-(4-((1s,3s)-3-((2-(2,6-dioxopiperidin-3-yl)-1,3-dioxoisoindolin-5-yl)amino)cyclobutyloxy)phenyl)propan-2-yl)phenoxy)methyl)-N-methylpyrimidin-2-carbonylamine] | < 10 nM | 100 to 1000 ng·h/mL | 6 nM |  | 
CC(O)c1ncc(Oc2ccc(C3(c4ccc(O[C@H]5C[C@H](Nc6ccc7c(c6)C(=O)N(C6CCC(=O)NC6=O)C7=O)C5)cc4)CC3)cc2)cn1 (stereo partly drawn) [Example 377, 2-(2,6-dioxopiperidin-3-yl)-5-(((1r,3r)-3-(4-(1-(4-((2-(1-hydroxylethyl)pyrimidin-5-yl)oxy)phenyl)cyclopropyl)phenoxy)cyclobutyl)amino)isoindolin-1,3-dione] | < 10 nM | 5000 to 30000 ng·h/mL | 12 nM |  | 
CC(O)c1ncc(Oc2ccc(C3(c4ccc(O[C@H]5C[C@H](Nc6ccc7c(c6)C(=O)N(C6CCC(=O)NC6=O)C7=O)C5)cc4)CCCCC3)cc2)cn1 (stereo partly drawn) [Example 528] | < 10 nM | 5000 to 30000 ng·h/mL | 2 nM |  | 
CC(C)(c1ccc(Oc2ccc(C#N)nn2)cc1)c1ccc(O[C@H]2C[C@H](Nc3ccc4c(c3)C(=O)N(C3CCC(=O)NC3=O)C4=O)C2)cc1 (stereo partly drawn) [Example 98, 6-(4-(2-(4-((1r,3r)-3-((2-(2,6-dioxopiperidin-3-yl)-1,3-dioxoisoindolin-5-yl)amino)cyclobutyloxy)phenyl)propan-2-yl)phenoxy) pyridazine-3-carbonitrile] | < 10 nM | 100 to 1000 ng·h/mL | 4 nM |  | 
Cc1noc(-c2ncc(Oc3ccc(C(C)(C)c4ccc(O[C@H]5C[C@H](Nc6ccc7c(c6)C(=O)N(C6CCC(=O)NC6=O)C7=O)C5)cc4)cc3)cn2)n1 (stereo partly drawn) [Example 254] | < 10 nM | 5000 to 30000 ng·h/mL | 6 nM |  | 
C=CC(c1ccc(Oc2cnc(-c3nnc(C)o3)nc2)cc1)c1ccc(O[C@H]2C[C@H](Nc3ccc4c(c3)C(=O)N(C3CCC(=O)NC3=O)C4=O)C2)cc1 (stereo partly drawn) [Example 373, 2-(2,6-dioxopiperidin-3-yl)-5-(((1r,3r)-3-(4-(1-(4-((2-(5-methyl-1,3,4-oxadiazol-2-yl)pyrimidin-5-yl)oxy)phenyl)allyl)phenoxy)cyclobutyl)amino)isoindolin-1,3-dione] | < 10 nM | 5000 to 30000 ng·h/mL | 13 nM |  | 
CC(O)c1ncc(Oc2ccc(C(C)(C)c3ccc(O[C@H]4C[C@H](Nc5ccc6c(c5)C(=O)N(C5CCC(=O)NC5=O)C6=O)C4)cn3)cc2)cn1 (stereo partly drawn) [Example 223] | < 10 nM | 1000 to 5000 ng·h/mL | 0.5 nM |  | 
O=C1CCC(N2C(=O)c3ccc(N[C@H]4C[C@@H](Oc5ccc(C6(c7ccc(OCc8ccnc(N9CC%10(COC%10)C9)n8)cc7)CCC6)cc5)C4)cc3C2=O)C(=O)N1 (stereo partly drawn) [Example 359, 5-(((1s,3s)-3-(4-(1-(4-((2-(2-oxa-6-azaspiro[3.3]heptane-6-yl)pyrimidin-4-yl)methoxy)phenyl)cyclobutyl)phenoxy)cyclobutyl)amino)-2-(2,6-dioxopiperidin-3-yl)isoindolin-1,3-dione] | < 10 nM | 1000 to 5000 ng·h/mL | 6 nM |  | 
Cc1nc(-c2ccc(Oc3ccc(C(C)(C)c4ccc(O[C@H]5C[C@H](Nc6ccc7c(c6)C(=O)N(C6CCC(=O)NC6=O)C7=O)C5)cc4)cc3)cn2)no1 (stereo partly drawn) [Example 209] | < 10 nM |  |  | A (30-5 μg*h/mL) | 5 nM
Cc1nnc(-c2ccc(Oc3ccc(C(C)(C)c4ccc(O[C@H]5C[C@H](Nc6ccc7c(c6)C(=O)N(C6CCC(=O)NC6=O)C7=O)C5)cc4)cc3)cn2)o1 (stereo partly drawn) [Example 323] | < 10 nM | 5000 to 30000 ng·h/mL | 11 nM |  | 
CC(C)(c1ccc(Oc2cnc(C#N)nc2)cc1)c1ccc(O[C@H]2C[C@H](Nc3ccc4c(c3)C(=O)N(C3CCC(=O)NC3=O)C4=O)C2)cc1 (stereo partly drawn) [Example 97, 5-(4-(2-(4-((1r,3r)-3-((2-(2,6-dioxopiperidin-3-yl)-1,3-dioxoisoindolin-5-yl)amino)cyclobutyloxy)phenyl)propan-2-yl)phenoxy)pyrimidin-2-carbonitrile] | < 10 nM | 5000 to 30000 ng·h/mL | 15 nM |  | 
CCC(CC)(c1ccc(Oc2ccc(C(C)O)nn2)cc1)c1ccc(O[C@H]2C[C@H](Nc3ccc4c(c3)C(=O)N(C3CCC(=O)NC3=O)C4=O)C2)cc1 (stereo partly drawn) [Example 175, 2-(2,6-dioxopiperidin-3-yl)-5-(((1r,3r)-3-(4-(3-(4-((6-(1-hydroxylethyl)pyridazine-3-yl)oxy)phenyl)pentan-3-yl)phenoxy)cyclobutyl)amino)isoindolin-1,3-dione] | < 10 nM | 1000 to 5000 ng·h/mL | 4 nM |  | 
C=CC(c1ccc(Oc2cnc(-c3noc(C)n3)nc2)cc1)c1ccc(O[C@H]2C[C@H](Nc3ccc4c(c3)C(=O)N(C3CCC(=O)NC3=O)C4=O)C2)cc1 (stereo partly drawn) [Example 210] | < 10 nM | 5000 to 30000 ng·h/mL | 7 nM |  | 
CC(=O)c1ncc(Oc2ccc(C(C)(C)c3ccc(O[C@H]4C[C@H](Nc5ccc6c(c5)C(=O)N(C5CCC(=O)NC5=O)C6=O)C4)cc3)cc2)cn1 (stereo partly drawn) [Example 119, 5-(((trans)-3-(4-(2-(4-((2-acetylpyrimidin-5-yl)oxy)phenyl)propan-2-yl)phenoxy)cyclobutyl)amino)-2-(2,6-dioxopiperidin-3-yl) isoindolin-1,3-dione] | < 10 nM | 5000 to 30000 ng·h/mL | 2 nM |  | 
CC(=O)c1ccc(Oc2ccc(C(C)(C)c3ccc(O[C@H]4C[C@H](Nc5ccc6c(c5)C(=O)N(C5CCC(=O)NC5=O)C6=O)C4)cc3)cc2)nn1 (stereo partly drawn) [Example 126, 5-(((trans)-3-(4-(2-(4-((6-acetylpyridazine-3-yl)oxy)phenyl)propan-2-yl)phenoxy)cyclobutyl)amino)-2-(2,6-dioxopiperidin-3-yl)isoindolin-1,3-dione] | < 10 nM | 5000 to 30000 ng·h/mL | 6 nM |  | 
CC(C)(c1ccc(OCc2cnc(N3CC4(COC4)C3)nc2)cc1)c1ccc(O[C@H]2C[C@@H](Nc3ccc4c(c3)C(=O)N(C3CCC(=O)NC3=O)C4=O)C2)cc1 (stereo partly drawn) [Example 193] | 11 to 100 nM | 1000 to 5000 ng·h/mL | 36 nM |  | 
CC(C)(c1ccc(OCc2ccnc(-n3nccn3)n2)cc1)c1ccc(O[C@H]2C[C@@H](Nc3ccc4c(c3)C(=O)N(C3CCC(=O)NC3=O)C4=O)C2)cc1 (stereo partly drawn) [Example 446, 5-(((1s,3s)-3-(4-(2-(4-((2-(2H-1,2,3-triazol-2-yl)pyrimidin-4-yl)methoxy)phenyl)propan-2-yl)phenoxy)cyclobutyl)amino)-2-(2,6-dioxopiperidin-3-yl)isoindolin-1,3-dione] | 11 to 100 nM | 5000 to 30000 ng·h/mL | 9 nM |  | 
CN1CCC(Nc2nccc(COc3ccc(C(C)(C)c4ccc(O[C@H]5C[C@H](Nc6ccc7c(c6)C(=O)N(C6CCC(=O)NC6=O)C7=O)C5)cc4)cc3)n2)CC1 (stereo partly drawn) [Example 232] | < 10 nM | 100 to 1000 ng·h/mL | 8 nM |  | 
C=CC(c1ccc(Oc2cnc(-n3nccn3)nc2)cc1)c1ccc(O[C@H]2C[C@H](Nc3ccc4c(c3)C(=O)N(C3CCC(=O)NC3=O)C4=O)C2)cc1 (stereo partly drawn) [Example 372, 5-(((1r,3r)-3-(4-(1-(4-((2-(2H-1,2,3-triazole-2-yl)pyrimidin-5-yl)oxy)phenyl)allyl)phenoxy)cyclobutyl)amino)-2-(2,6-dioxopiperidin-3-yl)isoindolin-1,3-dione] | < 10 nM | 5000 to 30000 ng·h/mL | 8 nM |  | 
Cc1nc(-c2cc(Oc3ccc(C(C)(C)c4ccc(O[C@H]5C[C@H](Nc6ccc7c(c6)C(=O)N(C6CCC(=O)NC6=O)C7=O)C5)cc4)cc3)ncn2)no1 (stereo partly drawn) [Example 588] | < 10 nM | 5000 to 30000 ng·h/mL | 13 nM |  | 
CC1(O)CN(c2nccc(COc3ccc(C(C)(C)c4ccc(O[C@H]5C[C@@H](Nc6ccc7c(c6)C(=O)N(C6CCC(=O)NC6=O)C7=O)C5)cc4)cc3)n2)C1 (stereo partly drawn) [Example 455] | < 10 nM | 1000 to 5000 ng·h/mL | 5 nM |  | 
Cc1noc(-c2nccc(Oc3ccc(C(C)(C)c4ccc(O[C@H]5C[C@H](Nc6ccc7c(c6)C(=O)N(C6CCC(=O)NC6=O)C7=O)C5)cc4)cc3)n2)n1 (stereo partly drawn) [Example 426] | < 10 nM | 1000 to 5000 ng·h/mL | 7 nM |  | 

— US20250051347A1, “BIFUNCTIONAL CHIMERIC HETEROCYCLIC COMPOUND AND USE THEREOF AS ANDROGEN RECEPTOR DEGRADER” (Hinova Pharmaceuticals, Inc., priority 2021, published 2025)
